Results published in US20090047246A1, “NOVEL INHIBITORS OF HEPATITIS C VIRUS REPLICATION” (InterMune, Inc., priority 2007, published 2009).

Target: T1, HCV NS3 helicase (Hepatitis C virus genotype 1b, UniProt P26663)
T1 construct: full-length NS3 (1-631), purified at Array BioPharma
Experiment: HCV Helicase Prompt FRET Assay (Example A)
Assay type: biochemical
Settings: HCV NS3 helicase; tables do not say whether Example A or Example B assay; read-out: IC50 Activity
In short: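 Initial unwinding rates, monitored as FAM fluorescence gain (ex 485, em 535) over ~30 min at room temperature, gave IC50 via 4- or 5-parameter logistic fits. Reactions: 50 nM quenched duplex, 250 nM capture strand, 300 μM ATP, 5–6 nM NS3 1-631 after 5 min compound preincubation, MOPS pH 7.0 buffer, 2% DMSO.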

T1 sequence (P26663 1027-1657): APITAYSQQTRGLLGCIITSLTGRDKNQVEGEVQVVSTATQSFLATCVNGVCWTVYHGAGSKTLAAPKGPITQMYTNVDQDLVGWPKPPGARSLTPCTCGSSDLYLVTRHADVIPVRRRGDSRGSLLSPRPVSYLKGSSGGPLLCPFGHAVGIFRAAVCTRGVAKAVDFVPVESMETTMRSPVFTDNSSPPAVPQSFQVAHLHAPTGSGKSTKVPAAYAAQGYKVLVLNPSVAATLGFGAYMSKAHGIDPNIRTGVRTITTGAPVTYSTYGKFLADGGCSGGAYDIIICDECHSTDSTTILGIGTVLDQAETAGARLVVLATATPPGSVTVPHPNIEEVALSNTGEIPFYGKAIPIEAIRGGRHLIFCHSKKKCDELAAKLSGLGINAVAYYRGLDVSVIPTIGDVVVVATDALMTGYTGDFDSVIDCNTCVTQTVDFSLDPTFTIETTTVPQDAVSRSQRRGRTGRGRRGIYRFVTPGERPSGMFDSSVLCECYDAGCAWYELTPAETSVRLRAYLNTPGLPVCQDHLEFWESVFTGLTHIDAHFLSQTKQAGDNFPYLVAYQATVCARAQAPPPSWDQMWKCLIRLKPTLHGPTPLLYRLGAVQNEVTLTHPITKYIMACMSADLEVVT

| SMILES | IC50 |
| --- | --- |
| CC(C)NC(=O)c1c(CC(=O)O)c2cc(Br)ccc2n1Cc1ccc(C(C)C)cc1 [Example 433] | 10 to 50 µM |
| CC(C)c1ccc(Cn2c(C(=O)NC3CC3)c(CC(=O)O)c3cc(Br)ccc32)cc1 [Example 434] | 10 to 50 µM |
| CC(C)c1ccc(Cn2c(C(=O)NC3CCCCC3)c(CC(=O)O)c3cc(Br)ccc32)cc1 [Example 435] | 10 to 50 µM |
| CC(C)c1ccc(Cn2c(C(=O)NC3CCNCC3)c(CC(=O)O)c3cc(Br)ccc32)cc1 [Example 438] | 10 to 50 µM |
| CC(C)c1ccc(Cn2c(C(=O)NCCc3ccccn3)c(CC(=O)O)c3ccccc32)cc1 [Example 439] | 10 to 50 µM |
| CC(C)c1ccc(Cn2c(C(=O)NCc3ccccc3)c(CC(=O)O)c3cc(Br)ccc32)cc1 [Example 440] | 10 to 50 µM |
| CC(C)c1ccc(Cn2c(C(=O)NCc3ccc(-c4ccccc4)cc3)c(CC(=O)O)c3cc(Br)ccc32)cc1 [Example 441] | 10 to 50 µM |
| CC(C)c1ccc(Cn2c(C(=O)NCc3ccc(S(N)(=O)=O)cc3)c(CC(=O)O)c3ccccc32)cc1 [Example 442] | 10 to 50 µM |
| Cc1ccc(CNC(=O)c2c(CC(=O)O)c3cc(Br)ccc3n2Cc2ccc(C(C)C)cc2)o1 [Example 444] | 10 to 50 µM |
| CC(C)c1ccc(Cn2c(C(=O)Nc3cccnc3)c(CC(=O)O)c3ccccc32)cc1 [Example 463] | 10 to 50 µM |
| O=C(O)c1cccc2c1c1ccccc1n2Cc1ccccc1 [Example 465] | > 50 µM |
| O=C(O)c1cccc2[nH]c3ccccc3c12 [Example 467] | > 50 µM |
| Cc1cc([N+](=O)[O-])ccc1-n1c2ccccc2c2c(C(=O)O)cccc21 [Example 470] | > 50 µM |
| Cc1cc([N+](=O)[O-])ccc1-n1c2ccc(Br)cc2c2c(C(=O)O)cccc21 [Example 471] | 10 to 50 µM |
| COc1ccccc1Oc1cccc(Cn2cc(CC(=O)O)c3ccccc32)c1 [Example 478] | 10 to 50 µM |
| COc1cccc(Oc2cccc(Cn3cc(CC(=O)O)c4ccccc43)c2)c1 [Example 479] | 10 to 50 µM |
| O=C(O)Cc1cn(Cc2cccc(Oc3cc(F)cc(F)c3)c2)c2ccccc12 [Example 485] | 10 to 50 µM |
| COc1ccc(Oc2cccc(Cn3cc(CC(=O)O)c4ccccc43)c2)c(OC)c1 [Example 489] | 10 to 50 µM |
| COc1ccc(OC)c(Oc2cccc(Cn3cc(CC(=O)O)c4ccccc43)c2)c1 [Example 490] | 10 to 50 µM |

| SMILES | IC50 |
| --- | --- |
| COc1ccc(Oc2cccc(Cn3cc(CC(=O)O)c4ccccc43)c2)cc1OC [Example 491] | 10 to 50 µM |
| COc1cccc(Oc2ccc(Cn3cc(CC(=O)O)c4ccccc43)cc2)c1 [Example 499] | 10 to 50 µM |
| O=C(O)Cc1cn(Cc2ccc(Oc3ccc(C(F)(F)F)cc3)cc2)c2ccccc12 [Example 504] | < 10 µM |
| O=C(O)Cc1cn(Cc2ccc(Oc3ccc(F)c(F)c3)cc2)c2ccccc12 [Example 505] | < 10 µM |
| O=C(O)Cc1cn(Cc2ccc(Oc3cc(F)cc(F)c3)cc2)c2ccccc12 [Example 506] | < 10 µM |
| O=C(O)Cc1cn(Cc2ccc(Oc3ccc(Cl)c(Cl)c3)cc2)c2ccccc12 [Example 507] | < 10 µM |
| O=C(O)Cc1cn(Cc2ccc(Oc3cc(Cl)cc(Cl)c3)cc2)c2ccccc12 [Example 508] | < 10 µM |
| COc1cccc(Oc2ccc(Cn3cc(CC(=O)O)c4ccccc43)cc2)c1OC [Example 509] | < 10 µM |
| COc1ccc(OC)c(Oc2ccc(Cn3cc(CC(=O)O)c4ccccc43)cc2)c1 [Example 510] | < 10 µM |
| COc1ccc(Oc2ccc(Cn3cc(CC(=O)O)c4ccccc43)cc2)cc1OC [Example 511] | < 10 µM |
| O=C(O)Cc1cn(Cc2ccc(Oc3cc(C(F)(F)F)cc(C(F)(F)F)c3)cc2)c2ccccc12 [Example 512] | < 10 µM |
| CCOC(=O)Cc1cn(Cc2ccc(Oc3cc(Cl)cc(Cl)c3)cc2)c2ccccc12 [Example 515] | < 10 µM |
| CCOC(=O)Cc1cn(Cc2ccc(Oc3ccc(C(F)(F)F)cc3)cc2)c2ccccc12 [Example 516] | 10 to 50 µM |
| CCOC(=O)Cc1cn(Cc2ccc(Oc3cc(C(F)(F)F)cc(C(F)(F)F)c3)cc2)c2ccccc12 [Example 517] | 10 to 50 µM |
| O=C(O)Cc1cn(Cc2ccc(Oc3cccc(F)c3)cc2)c2ccccc12 [Example 518] | < 10 µM |
| CN(c1cccc(Cn2cc(CC(=O)O)c3ccccc32)c1)c1ccccc1F [Example 520] | < 10 µM |
| CN(c1cccc(F)c1)c1cccc(Cn2cc(CC(=O)O)c3ccccc32)c1 [Example 521] | < 10 µM |
| CN(c1ccc(F)cc1)c1cccc(Cn2cc(CC(=O)O)c3ccccc32)c1 [Example 522] | < 10 µM |

Further lines, results first:

| IC50 | SMILES |
| --- | --- |
| < 10 µM | CC(C)c1ccc(Cn2c(C(=O)NC3CCN(C(=O)OC(C)(C)C)CC3)c(CC(=O)O)c3cc(Br)ccc32)cc1 [Example 436] |
| < 10 µM | CC(C)c1ccc(Cn2c(C(=O)NCc3ccc(S(C)(=O)=O)cc3)c(CC(=O)O)c3cc(Br)ccc32)cc1 [Example 443] |
| < 10 µM | CC(C)c1ccc(Cn2c(C(=O)NCc3cccc(-c4ccccc4)c3)c(CC(=O)O)c3cc(Br)ccc32)cc1 [Example 445] |
| < 10 µM | CC(C)c1ccc(Cn2c(C(=O)NCc3ccc(Oc4ccccc4)cc3)c(CC(=O)O)c3cc(Br)ccc32)cc1 [Example 446] |
| < 10 µM | CC(C)c1ccc(Cn2c(C(=O)NCc3ccc([N+](=O)[O-])cc3)c(CC(=O)O)c3ccccc32)cc1 [Example 447] |
| < 10 µM | CC(C)c1ccc(Cn2c(C(=O)NCc3nc4ccccc4[nH]3)c(CC(=O)O)c3cc(Br)ccc32)cc1 [Example 448] |
| < 10 µM | CC(C)c1ccc(Cn2c(C(=O)NCc3nc4ccccc4[nH]3)c(CC(=O)O)c3ccccc32)cc1 [Example 449] |
| < 10 µM | CC(C)c1ccc(Cn2c(C(=O)NCc3ccc(Cl)cc3)c(CC(=O)O)c3ccccc32)cc1 [Example 450] |
| < 10 µM | CC(C)c1ccc(Cn2c(C(=O)NCc3cccc(Cl)c3)c(CC(=O)O)c3ccccc32)cc1 [Example 451] |
| < 10 µM | CC(C)c1ccc(Cn2c(C(=O)NCc3ccc(F)cc3)c(CC(=O)O)c3ccccc32)cc1 [Example 452] |
| < 10 µM | CC(C)c1ccc(Cn2c(C(=O)NCc3cccc(F)c3)c(CC(=O)O)c3ccccc32)cc1 [Example 453] |
| < 10 µM | CC(C)c1ccc(Cn2c(C(=O)NCc3ccc(OC(F)(F)F)cc3)c(CC(=O)O)c3ccccc32)cc1 [Example 454] |
| < 10 µM | CC(C)c1ccc(Cn2c(C(=O)NCc3ccc(C(F)(F)F)cc3)c(CC(=O)O)c3ccccc32)cc1 [Example 455] |
| < 10 µM | CC(C)c1ccc(Cn2c(C(=O)Nc3ccccc3)c(CC(=O)O)c3cc(Br)ccc32)cc1 [Example 456] |
| < 10 µM | CC(C)c1ccc(Cn2c(C(=O)Nc3cccc(S(C)(=O)=O)c3)c(CC(=O)O)c3ccccc32)cc1 [Example 460] |
| < 10 µM | CC(C)c1ccc(Cn2c(C(=O)Nc3ccc(S(C)(=O)=O)cc3)c(CC(=O)O)c3ccccc32)cc1 [Example 461] |
| < 10 µM | CC(C)c1ccc(Cn2c(C(=O)Nc3cccc(NS(C)(=O)=O)c3)c(CC(=O)O)c3ccccc32)cc1 [Example 462] |
| < 10 µM | O=C(O)Cc1cn(Cc2cccc(Oc3ccccc3F)c2)c2ccccc12 [Example 472] |
| < 10 µM | O=C(O)Cc1cn(Cc2cccc(Oc3cccc(F)c3)c2)c2ccccc12 [Example 473] |
| < 10 µM | O=C(O)Cc1cn(Cc2cccc(Oc3ccc(F)cc3)c2)c2ccccc12 [Example 474] |
| < 10 µM | O=C(O)Cc1cn(Cc2cccc(Oc3ccccc3Cl)c2)c2ccccc12 [Example 475] |

| IC50 | SMILES |
| --- | --- |
| < 10 µM | O=C(O)Cc1cn(Cc2cccc(Oc3cccc(Cl)c3)c2)c2ccccc12 [Example 476] |
| < 10 µM | O=C(O)Cc1cn(Cc2cccc(Oc3ccc(Cl)cc3)c2)c2ccccc12 [Example 477] |
| < 10 µM | COc1ccc(Oc2cccc(Cn3cc(CC(=O)O)c4ccccc43)c2)cc1 [Example 480] |
| < 10 µM | O=C(O)Cc1cn(Cc2cccc(Oc3ccccc3C(F)(F)F)c2)c2ccccc12 [Example 481] |
| < 10 µM | O=C(O)Cc1cn(Cc2cccc(Oc3cccc(C(F)(F)F)c3)c2)c2ccccc12 [Example 482] |
| < 10 µM | O=C(O)Cc1cn(Cc2cccc(Oc3ccc(C(F)(F)F)cc3)c2)c2ccccc12 [Example 483] |
| < 10 µM | O=C(O)Cc1cn(Cc2cccc(Oc3ccc(F)c(F)c3)c2)c2ccccc12 [Example 484] |
| < 10 µM | O=C(O)Cc1cn(Cc2cccc(Oc3ccc(Cl)c(Cl)c3)c2)c2ccccc12 [Example 486] |
| < 10 µM | O=C(O)Cc1cn(Cc2cccc(Oc3cc(Cl)cc(Cl)c3)c2)c2ccccc12 [Example 487] |
| < 10 µM | COc1cccc(Oc2cccc(Cn3cc(CC(=O)O)c4ccccc43)c2)c1OC [Example 488] |
| < 10 µM | O=C(O)Cc1cn(Cc2cccc(Oc3cc(C(F)(F)F)cc(C(F)(F)F)c3)c2)c2ccccc12 [Example 492] |
| < 10 µM | O=C(O)Cc1cn(Cc2ccc(Oc3ccccc3F)cc2)c2ccccc12 [Example 493] |
| < 10 µM | O=C(O)Cc1cn(Cc2ccc(Oc3ccc(F)cc3)cc2)c2ccccc12 [Example 495] |
| < 10 µM | O=C(O)Cc1cn(Cc2ccc(Oc3ccccc3Cl)cc2)c2ccccc12 [Example 496] |
| < 10 µM | O=C(O)Cc1cn(Cc2ccc(Oc3cccc(Cl)c3)cc2)c2ccccc12 [Example 497] |
| < 10 µM | O=C(O)Cc1cn(Cc2ccc(Oc3ccc(Cl)cc3)cc2)c2ccccc12 [Example 498] |
| < 10 µM | COc1ccccc1Oc1ccc(Cn2cc(CC(=O)O)c3ccccc32)cc1 [Example 500] |
| < 10 µM | COc1ccc(Oc2ccc(Cn3cc(CC(=O)O)c4ccccc43)cc2)cc1 [Example 501] |
| < 10 µM | O=C(O)Cc1cn(Cc2ccc(Oc3ccccc3C(F)(F)F)cc2)c2ccccc12 [Example 502] |
| < 10 µM | O=C(O)Cc1cn(Cc2ccc(Oc3cccc(C(F)(F)F)c3)cc2)c2ccccc12 [Example 503] |
